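Compound exposure: 48 hours, 5 concentrations, 96-well plates. GI50 = concentration required for 50% inhibition of growth. TGI marks complete inhibition of growth.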
How the values were obtained:
Test in all cases: DTP human tumour cell line panel, 48 h
[1] = test system: RPMI-8226 leukemia
[2] = test system: COLO 205 colon
[3] = test system: SF-268 CNS
[4] = test system: LOX IMVI melanoma
[5] = test system: UACC-62 melanoma
[6] = test system: MDA-MB-231 breast
[7] = test system: A549 NSCLC
[8] = test system: UACC-257 melanoma
[9] = test system: MDA-N
[10] = test system: UO-31 renal

Row | Compound | TGI [1] | TGI [2] | TGI [3] | TGI [4] | TGI [5] | TGI [6] | TGI [7] | TGI [8] | TGI [9] | TGI [10] | GI50 [1] | GI50 [2] | GI50 [3] | GI50 [4] | GI50 [5] | GI50 [10] | GI50 [6] | GI50 [7] | GI50 [8]
1 | O=C(NC(C(F)(F)F)(C(F)(F)F)P(=O)(Cc1ccccc1)Cc1ccccc1)C(C(F)(F)F)C(F)(F)F | 72 µM | 38 µM | 59.4 µM | 35.2 µM | 62.4 µM | 38.8 µM | 68.3 µM | 46.5 µM | 43.6 µM |  |  |  |  |  |  |  |  |  | 
2 | Cn1c(=O)cc(NNc2ccc(Cl)c(Cl)c2)[nH]c1=O |  | 35.8 µM | 75.9 µM | 28.1 µM | 16.8 µM | 23.9 µM | 36 µM | 28.6 µM | 23.3 µM | 24.4 µM |  |  |  |  |  |  |  |  | 
3 | c1cncc(CSc2nc3ccccc3nc2-c2cccs2)c1 | > 100 µM | > 100 µM | > 100 µM | > 100 µM |  |  | > 100 µM | > 100 µM |  | > 100 µM |  |  |  |  |  |  |  |  | 
4 | CNC(=S)N1CCN(C(C)=O)C1=S |  | > 100 µM | > 100 µM | > 100 µM | > 100 µM | 16 µM | > 100 µM | > 100 µM | > 100 µM | > 100 µM |  |  |  |  |  |  |  |  | 
5 | NC(=O)C1CCN(Cc2c(Cl)c(Cl)c(CN3CCC(C(N)=O)CC3)c(Cl)c2Cl)CC1 | > 100 µM | > 100 µM | > 100 µM | > 100 µM | > 100 µM | 96 µM | > 100 µM | > 100 µM |  | > 100 µM |  |  |  |  |  |  |  |  | 
6 | CCCCN(CCCC)CC(C(C)=O)C(c1ccccc1)c1c(O)c2ccccc2oc1=O (configuration not stated) | > 100 µM | > 100 µM | > 100 µM | > 100 µM | > 100 µM |  | > 100 µM | > 100 µM |  |  |  |  |  |  |  |  |  |  | 
7 | CN(C)CCNCCCNc1c2ccccc2nc2cccc([N+](=O)[O-])c12 | < 0.0226 µM | 0.0245 µM | 0.105 µM | < 0.0253 µM | 0.236 µM | 0.0832 µM | 0.0999 µM | 0.525 µM |  | 0.26 µM |  |  |  |  |  |  |  |  | 
8 | CCn1ncc2c(=O)n3ncn(-c4ccc(Br)cc4)c3nc21 | > 100 µM | > 100 µM | > 100 µM |  | > 100 µM | > 100 µM | > 100 µM | > 100 µM | > 100 µM | > 100 µM |  |  |  |  |  |  |  |  | 
9 | C/C(=C\CSCC(N)C(=O)O)CC/C=C(\C)CNc1ccccc1 (configuration not stated) | > 100 µM | > 100 µM | > 100 µM | > 100 µM | > 100 µM | > 100 µM | > 100 µM | > 100 µM |  | > 100 µM |  |  |  |  |  |  |  |  | 
10 | Nc1c(N2CCOCC2)c(=O)nc2[nH]/c(=C\c3ccccc3O)c(=O)n12 | 77.3 µM | > 100 µM | > 100 µM | > 100 µM |  | > 100 µM | > 100 µM | > 100 µM | > 100 µM | > 100 µM |  |  |  |  |  |  |  |  | 
11 | O=C(c1ccc([N+](=O)[O-])cc1)N1CCCC1 | > 100 µM |  | > 100 µM | > 100 µM | > 100 µM | > 100 µM | > 100 µM | > 100 µM | > 100 µM | > 100 µM |  |  |  |  |  |  |  |  | 
12 | CCN(CC)C(=S)N/N=C(/c1ccccc1)c1ccccn1 | 45.1 µM | 0.0942 µM |  | > 35.8 µM |  |  | > 39.7 µM | 2.56 µM | 26.1 µM | 9.52 µM |  |  |  |  |  |  |  |  | 
13 | CN(C)CCCNC(=O)N/N=C/c1ccccc1 |  |  | > 100 µM | > 100 µM | > 100 µM |  | > 100 µM | > 100 µM |  | > 100 µM |  |  |  |  |  |  |  |  | 
14 | N#CCCN(CCC#N)c1ccc(C(N=Nc2ccccc2)=Nc2ccc(F)cc2)cc1 | > 100 µM | > 100 µM | > 100 µM |  | > 100 µM | > 100 µM | > 100 µM | > 100 µM | > 100 µM | > 100 µM |  |  |  |  |  |  |  |  | 
15 | O=C(c1ccco1)N(C(=O)N1CCC(c2ccccc2)CC1)c1ccccc1 | 60 µM | > 100 µM | > 100 µM | > 100 µM | > 100 µM | > 100 µM |  | > 100 µM | > 100 µM | 83.8 µM |  |  |  |  |  |  |  |  | 
16 | CC(=O)Oc1ccc2c(-c3ccccc3)c(Oc3ccc(Cl)cc3)c(=O)oc2c1 | > 100 µM |  | 22.6 µM | 36.7 µM |  | 32.8 µM | 27.6 µM | 37.8 µM |  | 28.4 µM |  |  |  |  |  |  |  |  | 
17 | COc1ccc([C@]23CCC4(OCC(C)(C)CO4)[C@H]4CON(O[C@H](O[C@@H]5CCCCC5C(C)(C)c5ccccc5)C2)[C@@H]43)cc1OC (some centres not stated) | > 100 µM | > 100 µM |  | > 100 µM | > 100 µM | > 100 µM | > 100 µM | > 100 µM | > 100 µM | > 100 µM |  |  |  |  |  |  |  |  | 
18 | O=C1c2cc3c(cc2-c2c1c1ccc(Cl)cc1c(=O)n2CCCn1ccnc1)OCO3 | 0.546 µM | > 100 µM | > 100 µM | 0.0297 µM | 0.0296 µM | > 100 µM | > 100 µM | > 100 µM |  | > 100 µM | 0.0215 µM | 0.0552 µM | < 0.01 µM | < 0.01 µM | < 0.01 µM | < 0.01 µM | 0.959 µM | 0.0136 µM | 0.0584 µM
19 | CC1(C)OCC(C2OC(C)(C)OC2[C@H]2O[C@@]3(O)[C@H]4[C@H](C=CC[C@@H]42)[C@@H](OCc2ccccc2)[C@H](OCc2ccccc2)[C@H]3OCc2ccccc2)O1 (some centres not stated) |  | > 100 µM | > 100 µM | > 100 µM | > 100 µM | > 100 µM | > 100 µM | > 100 µM | 44.8 µM | 72.3 µM |  |  |  |  |  |  |  |  | 
20 | O=C1Nc2cc(F)ccc2C1=O | > 100 µM | > 100 µM | > 100 µM | > 100 µM | > 100 µM |  | > 100 µM | > 100 µM |  | > 100 µM |  |  |  |  |  |  |  |  | 
21 | CC(C)(C)c1ccnc(N=C2N=C(Nc3cc(C(C)(C)C)ccn3)c3ccccc32)c1 |  | > 100 µM | 37.9 µM | > 100 µM | > 100 µM |  | 62.3 µM | 76.1 µM |  | 65.3 µM |  |  |  |  |  |  |  |  | 
22 | COc1cc2c(c(OC)c1)[C@H](C)N(Cc1ccccc1)C(C)C2 (some centres not stated) | > 100 µM | > 100 µM | > 100 µM | > 100 µM | > 100 µM | > 100 µM | > 100 µM | > 100 µM |  | > 100 µM |  |  |  |  |  |  |  |  | 
23 | Cc1ccc(C)c(COCCOCn2cc(N3CCOCC3)c(=O)[nH]c2=O)c1 |  | > 100 µM | > 100 µM | > 100 µM | > 100 µM | > 100 µM | > 100 µM | > 100 µM | > 100 µM | > 100 µM |  |  |  |  |  |  |  |  | 
